Counter-ions that a name gives are not always drawn.
Legend:
[1] = tested on: Phosphorylated Ribosomal Protein S6 (RPS6) in THP-1 cells; test: THP-1 RPS6 ELISA Assay; type: cell-based; details: Homo sapiens; serum starved THP-1 cells, 2 hours with compound, 10 nM MCP-1 for 15 minutes, Phospho-RPS6 ELISA; read-out: PI3Kγ_THP1_RPS6_ELISA IC50
Procedure, shortened: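 Phospho-RPS6 in lysates measured by ELISA at 450 nm, corrected at 540 nm, after MCP-1 challenge (10 nM, 15 min) of THP-1 cells that were starved overnight and exposed to test compound for 2 h at 37° C, 2×10^5 cells/well. Curve fit of percent inhibition gives IC50.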

[2] = molecular target: PI3Kγ (p110γ) Recombinant Human Protein (Homo sapiens (Human), UniProt P48736); test: PI3K-γ Scintillation Proximity Assay; type: biochemical; details: 20 μM PIP2, 2 μM ATP, 13 nM PI3Kγ, 120 min, room temperature
Sequence of PI3Kγ (p110γ) Recombinant Human Protein (P48736 whole entry): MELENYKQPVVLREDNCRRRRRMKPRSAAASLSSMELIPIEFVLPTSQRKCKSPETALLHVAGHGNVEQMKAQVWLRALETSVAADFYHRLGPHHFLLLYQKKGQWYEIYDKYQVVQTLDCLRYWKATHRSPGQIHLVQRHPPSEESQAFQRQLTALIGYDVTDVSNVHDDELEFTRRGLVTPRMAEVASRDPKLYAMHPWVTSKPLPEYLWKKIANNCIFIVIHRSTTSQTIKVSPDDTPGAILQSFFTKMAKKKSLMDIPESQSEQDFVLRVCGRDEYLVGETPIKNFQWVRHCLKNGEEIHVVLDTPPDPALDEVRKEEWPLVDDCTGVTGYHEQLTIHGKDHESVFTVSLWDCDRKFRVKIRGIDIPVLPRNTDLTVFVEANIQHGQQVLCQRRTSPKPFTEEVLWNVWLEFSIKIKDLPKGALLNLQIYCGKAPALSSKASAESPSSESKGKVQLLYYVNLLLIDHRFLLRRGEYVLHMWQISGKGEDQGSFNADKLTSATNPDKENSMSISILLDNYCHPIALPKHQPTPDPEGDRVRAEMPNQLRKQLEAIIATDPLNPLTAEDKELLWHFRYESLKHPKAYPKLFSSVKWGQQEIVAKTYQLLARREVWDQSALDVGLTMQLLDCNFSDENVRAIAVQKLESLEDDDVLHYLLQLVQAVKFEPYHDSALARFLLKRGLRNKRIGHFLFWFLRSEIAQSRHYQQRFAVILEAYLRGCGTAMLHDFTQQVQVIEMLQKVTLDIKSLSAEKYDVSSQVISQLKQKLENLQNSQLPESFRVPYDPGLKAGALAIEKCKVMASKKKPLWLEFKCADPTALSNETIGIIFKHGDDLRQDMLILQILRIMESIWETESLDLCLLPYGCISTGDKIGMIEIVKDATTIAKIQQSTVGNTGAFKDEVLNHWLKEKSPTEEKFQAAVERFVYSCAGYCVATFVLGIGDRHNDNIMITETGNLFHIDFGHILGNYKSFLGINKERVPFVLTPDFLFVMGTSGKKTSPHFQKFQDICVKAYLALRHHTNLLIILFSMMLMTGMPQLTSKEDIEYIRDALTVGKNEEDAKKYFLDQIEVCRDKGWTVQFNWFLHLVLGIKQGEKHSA
Procedure, shortened: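 Recombinant human p110γ (13 nM) phosphorylated 20 μM PIP2 with 2 μM ATP plus [γ-33P]ATP in 20 mM MOPS pH 6.7, 10 mM MgCl2, 5 mM DTT, 0.03% CHAPS, 2% DMSO, 120 min at room temperature. Radiolabelled product was captured on WGA SPA beads and counted. IC50 came from curves of percent solvent-control activity.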

[3] = molecular target: PI3Kδ (p110δ/p85α) Recombinant Human Protein (Homo sapiens (Human), UniProt O00329); test: PI3Kδ Scintillation Proximity Assay; type: biochemical; details: 20 μM PIP2, 2 μM ATP, 3.4 nM PI3Kδ, 120 min, room temperature
Sequence of PI3Kδ (p110δ/p85α) Recombinant Human Protein (O00329 whole entry): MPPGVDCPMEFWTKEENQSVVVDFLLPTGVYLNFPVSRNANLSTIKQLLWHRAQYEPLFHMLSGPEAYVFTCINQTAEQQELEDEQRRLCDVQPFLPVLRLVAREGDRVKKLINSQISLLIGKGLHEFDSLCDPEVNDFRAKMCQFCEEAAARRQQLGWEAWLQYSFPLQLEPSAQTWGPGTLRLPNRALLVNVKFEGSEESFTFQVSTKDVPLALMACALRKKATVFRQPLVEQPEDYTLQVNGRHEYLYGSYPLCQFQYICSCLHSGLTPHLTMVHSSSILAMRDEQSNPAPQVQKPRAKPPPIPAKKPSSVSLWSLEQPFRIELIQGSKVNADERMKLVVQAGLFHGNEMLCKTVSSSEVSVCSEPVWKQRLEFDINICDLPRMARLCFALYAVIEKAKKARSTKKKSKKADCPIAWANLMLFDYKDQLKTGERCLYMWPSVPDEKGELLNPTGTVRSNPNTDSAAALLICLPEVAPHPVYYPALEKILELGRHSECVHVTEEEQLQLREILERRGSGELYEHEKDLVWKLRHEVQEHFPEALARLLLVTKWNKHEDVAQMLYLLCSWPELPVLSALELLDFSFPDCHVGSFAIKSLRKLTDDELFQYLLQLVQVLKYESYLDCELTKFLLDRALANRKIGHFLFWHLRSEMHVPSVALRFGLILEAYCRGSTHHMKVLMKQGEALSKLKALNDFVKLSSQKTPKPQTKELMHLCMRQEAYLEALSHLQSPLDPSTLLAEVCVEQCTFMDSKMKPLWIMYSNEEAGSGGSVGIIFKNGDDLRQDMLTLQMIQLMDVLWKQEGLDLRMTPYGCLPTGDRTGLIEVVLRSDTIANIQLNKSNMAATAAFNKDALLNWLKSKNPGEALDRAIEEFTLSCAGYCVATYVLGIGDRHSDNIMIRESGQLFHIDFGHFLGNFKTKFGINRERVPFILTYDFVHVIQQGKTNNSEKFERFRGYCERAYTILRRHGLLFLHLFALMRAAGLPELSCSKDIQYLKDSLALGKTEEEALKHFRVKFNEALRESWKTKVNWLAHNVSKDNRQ
Sequence of PI3Kδ (p110δ/p85α) Recombinant Human Protein (P27986 whole entry partner): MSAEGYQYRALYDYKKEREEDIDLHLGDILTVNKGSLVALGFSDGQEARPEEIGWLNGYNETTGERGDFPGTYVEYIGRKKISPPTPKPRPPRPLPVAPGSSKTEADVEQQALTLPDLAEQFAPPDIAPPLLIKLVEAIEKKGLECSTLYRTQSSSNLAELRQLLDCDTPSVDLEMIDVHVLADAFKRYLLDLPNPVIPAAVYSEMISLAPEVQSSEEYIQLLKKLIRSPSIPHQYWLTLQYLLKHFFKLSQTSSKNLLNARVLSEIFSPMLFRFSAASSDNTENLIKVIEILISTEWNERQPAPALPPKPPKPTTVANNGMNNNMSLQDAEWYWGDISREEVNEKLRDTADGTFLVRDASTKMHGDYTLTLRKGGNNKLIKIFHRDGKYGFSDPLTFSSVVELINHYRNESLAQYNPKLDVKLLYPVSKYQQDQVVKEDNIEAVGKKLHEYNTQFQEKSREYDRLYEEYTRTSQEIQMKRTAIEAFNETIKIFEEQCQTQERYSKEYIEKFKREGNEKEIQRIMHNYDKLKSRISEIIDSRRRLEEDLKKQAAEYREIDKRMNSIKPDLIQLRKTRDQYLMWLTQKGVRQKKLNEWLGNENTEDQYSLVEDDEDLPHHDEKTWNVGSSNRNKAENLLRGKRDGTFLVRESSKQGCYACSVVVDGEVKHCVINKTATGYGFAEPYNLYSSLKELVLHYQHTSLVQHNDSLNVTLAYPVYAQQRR
Procedure, shortened: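 Radiometric read-out: 33P-labelled PIP3 product captured on WGA SPA beads and counted, with IC50 fitted from percent activity relative to DMSO control. Enzyme (3.4 nM) was incubated 120 min at room temperature with 20 μM PIP2 and 2 μM ATP at pH 6.7, 2% DMSO.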

SMILES	IC50 [1]	IC50 [2]	IC50 [3]
[2H]C([2H])([2H])c1ccc(S(=O)(=O)NC23CCC(C#N)(C2)C3)cc1-c1cnc(N)c(-c2cnc(C)o2)n1 [Example 66, 3-(5-Amino-6-(2-methyloxazol-5-yl)pyrazin-2-yl)-N-(4-cyanobicyclo[2.1.1]hexan-1-yl)-4-(methyl-d3)benzenesulfonamide trifluoroacetate salt]	≤ 0.1 µM	≤ 0.1 µM	≤ 0.1 µM
[2H]C([2H])([2H])c1ccc(S(=O)(=O)NC23CCC(C#N)(C2)C3)cc1-c1cnc(N)c(-c2cnc(N(C)C)nc2)n1 [Example 67, 3-(5-Amino-6-(2-(dimethylamino)pyrimidin-5-yl)pyrazin-2-yl)-N-(4-cyanobicyclo[2.1.1]hexan-1-yl)-4-(methyl-d3)benzenesulfonamide trifluoroacetate salt]	≤ 0.1 µM	≤ 0.1 µM	≤ 0.5 µM
[2H]C([2H])([2H])c1ccc(S(=O)(=O)NC23CCC(C#N)(C2)C3)cc1-c1cnc(N)c(-c2cnco2)n1 [Example 69, 3-(5-Amino-6-(oxazol-5-yl)pyrazin-2-yl)-N-(4-cyanobicyclo[2.1.1]hexan-1-yl)-4-(methyl-d3)benzenesulfonamide trifluoroacetate salt]	≤ 0.1 µM	≤ 0.1 µM	≤ 0.1 µM
[2H]C([2H])([2H])c1ccc(S(=O)(=O)NC23CCC(C#N)(C2)C3)cc1-c1cnc(N)c(-c2ncccn2)n1 [Example 70, 3-(5-Amino-6-(pyrimidin-2-yl)pyrazin-2-yl)-N-(4-cyanobicyclo[2.1.1]hexan-1-yl)-4-(methyl-d3)benzenesulfonamide trifluoroacetate salt]	≥ 1 µM	≤ 0.1 µM	< 2 µM
[2H]C([2H])([2H])c1ccc(S(=O)(=O)NC23CCC(C#N)(C2)C3)cc1-c1cnc(N)c(-c2ncco2)n1 [Example 71, 3-(5-Amino-6-(oxazol-2-yl)pyrazin-2-yl)-N-(4-cyanobicyclo[2.1.1]hexan-1-yl)-4-(methyl-d3)benzenesulfonamide trifluoroacetate salt]	≤ 0.5 µM	≤ 0.1 µM	≤ 0.5 µM
[2H]C([2H])([2H])c1ccc(S(=O)(=O)NC23CCC(C#N)(C2)C3)cc1-c1cnc(N)c(-c2ccncn2)n1 [Example 72, 3-(5-Amino-6-(pyrimidin-4-yl)pyrazin-2-yl)-N-(4-cyanobicyclo[2.1.1]hexan-1-yl)-4-(methyl-d3)benzenesulfonamide trifluoroacetate salt]	≤ 0.1 µM	≤ 0.1 µM	≤ 0.1 µM
[2H]C([2H])([2H])c1ccc(S(=O)(=O)NC23CC(C#N)(C2)C3)cc1-c1cnc(N)c(-c2cnco2)n1 [Example 73, 3-(5-Amino-6-(oxazol-5-yl)pyrazin-2-yl)-N-(3-cyanobicyclo[1.1.1]pentan-1-yl)-4-(methyl-d3)benzenesulfonamide trifluoroacetate salt]	≤ 0.1 µM	≤ 0.1 µM	≤ 0.1 µM
[2H]C([2H])([2H])c1ccc(S(=O)(=O)NC23CCC(O)(C2)C3)cc1-c1cnc(N)c(-c2cnco2)n1 [Example 74, 3-(5-Amino-6-(oxazol-5-yl)pyrazin-2-yl)-N-(4-hydroxybicyclo[2.1.1]hexan-1-yl)-4-(methyl-d3)benzenesulfonamide trifluoroacetate salt]	≤ 0.1 µM	≤ 0.1 µM	≤ 0.5 µM
[2H]C([2H])([2H])c1ccc(S(=O)(=O)NC23CC(CO)(C2)C3)cc1-c1cnc(N)c(-c2cnco2)n1 [Example 75, 3-(5-Amino-6-(oxazol-5-yl)pyrazin-2-yl)-N-(3-(hydroxymethyl)bicyclo[1.1.1]pentan-1-yl)-4-(methyl-d3)benzenesulfonamide trifluoroacetate salt]	≤ 0.1 µM	≤ 0.1 µM	≤ 0.5 µM
[2H]C([2H])([2H])c1ccc(S(=O)(=O)NC23CC(C#N)(C2)C3)cc1-c1cnc(N)c(-c2ccnc(SC)n2)n1 [Example 76, 3-(5-Amino-6-(2-(methylthio)pyrimidin-4-yl)pyrazin-2-yl)-N-(3-cyanobicyclo[1.1.1]pentan-1-yl)-4-(methyl-d3)benzenesulfonamide]	≤ 0.1 µM	≤ 0.1 µM	≤ 0.1 µM
[2H]C([2H])([2H])c1ccc(S(=O)(=O)NC23CCC(O)(C2)C3)cc1-c1cnc(N)c(-c2ccnc(SC)n2)n1 [Example 77, 3-(5-Amino-6-(2-(methylthio)pyrimidin-4-yl)pyrazin-2-yl)-N-(4-hydroxybicyclo[2.1.1]hexan-1-yl)-4-(methyl-d3)benzenesulfonamide]	≤ 0.1 µM	≤ 0.1 µM	≤ 0.1 µM
[2H]C([2H])([2H])c1ccc(S(=O)(=O)NC23CC(CO)(C2)C3)cc1-c1cnc(N)c(-c2ccnc(SC)n2)n1 [Example 78, 3-(5-Amino-6-(2-(methylthio)pyrimidin-4-yl)pyrazin-2-yl)-N-(3-(hydroxymethyl)bicyclo[1.1.1]pentan-1-yl)-4-(methyl-d3)benzenesulfonamide]	≤ 0.1 µM	≤ 0.1 µM	≤ 0.1 µM
[2H]C([2H])([2H])c1ccc(S(=O)(=O)NC23CC(C#N)(C2)C3)cc1-c1cnc(N)c(-c2ccncn2)n1 [Example 79, 3-(5-Amino-6-(pyrimidin-4-yl)pyrazin-2-yl)-N-(3-cyanobicyclo[1.1.1]pentan-1-yl)-4-(methyl-d3)benzenesulfonamide Trifluoroacetate Salt]	≤ 0.1 µM	≤ 0.1 µM	≤ 0.1 µM
[2H]C([2H])([2H])c1ccc(S(=O)(=O)NC23CCC(O)(C2)C3)cc1-c1cnc(N)c(-c2ccncn2)n1 [Example 80, 3-(5-Amino-6-(pyrimidin-4-yl)pyrazin-2-yl)-N-(4-hydroxybicyclo[2.1.1]hexan-1-yl)-4-(methyl-d3)benzenesulfonamide trifluoroacetate salt]	≤ 0.1 µM	≤ 0.1 µM	≤ 0.1 µM
[2H]C([2H])([2H])c1ccc(S(=O)(=O)NC23CC(CO)(C2)C3)cc1-c1cnc(N)c(-c2ccncn2)n1 [Example 81, 3-(5-Amino-6-(pyrimidin-4-yl)pyrazin-2-yl)-N-(3-(hydroxymethyl)bicyclo[1.1.1]pentan-1-yl)-4-(methyl-d3)benzenesulfonamide trifluoroacetate salt]	≤ 0.5 µM	≤ 0.1 µM	≤ 0.1 µM
Cc1ccc(S(=O)(=O)NC23CCC(C#N)(C2)C3)cc1-c1cnc(N)c(-c2cn(C)nc2C)c1 [Example 82, 3-(6-Amino-5-(1,3-dimethyl-1H-pyrazol-4-yl)pyridin-3-yl)-N-(4-cyanobicyclo[2.1.1]hexan-1-yl)-4-methylbenzenesulfonamide]	≤ 1 µM	≤ 0.1 µM	≤ 0.5 µM
Cc1ncc(-c2cc(-c3cc(S(=O)(=O)NC45CCC(C#N)(C4)C5)ccc3C)cnc2N)s1 [Example 85, 3-(6-amino-5-(2-methylthiazol-5-yl)pyridin-3-yl)-N-(4-cyanobicyclo[2.1.1]hexan-1-yl)-4-methylbenzenesulfonamide]	≤ 0.1 µM	≤ 0.1 µM	≤ 0.1 µM
Cc1ncc(-c2cc(-c3cc(S(=O)(=O)NC45COC(CO)(C4)C5)ccc3C)cnc2N)s1 [Example 86, 3-(6-amino-5-(2-methylthiazol-5-yl)pyridin-3-yl)-N-(1-(hydroxymethyl)-2-oxabicyclo[2.1.1]hexan-4-yl)-4-methylbenzenesulfonamide]	≤ 0.5 µM	≤ 0.1 µM	≤ 0.5 µM
Cc1ncc(-c2cc(-c3cc(S(=O)(=O)NC45CC(CO)(C4)C5)ccc3C)cnc2N)s1 [Example 87, 3-(6-amino-5-(2-methylthiazol-5-yl)pyridin-3-yl)-N-(3-(hydroxymethyl)bicyclo[1.1.1]pen-tan-1-yl)-4-methylbenzenesulfonamide]	≤ 0.1 µM	≤ 0.1 µM	≤ 0.1 µM
Cc1ccc(S(=O)(=O)NC23COC(CO)(C2)C3)cc1-c1cnc(N)c(-c2cnc(C3CC3)s2)c1 [Example 89, 3-(6-amino-5-(2-cyclopropylthiazol-5-yl)pyridin-3-yl)-N-(1-(hydroxymethyl)-2-oxabicyclo[2.1.1]hexan-4-yl)-4-methylbenzenesulfonamide]	≤ 0.1 µM	≤ 0.1 µM	≤ 0.5 µM
[2H]C([2H])([2H])c1ccc(S(=O)(=O)NC23CCN(CC2)C3)cc1-c1cnc(N)c(-n2cncn2)n1 [Example 90, 3-(5-amino-6-(1H-1,2,4-triazol-1-yl)pyrazin-2-yl)-N-(1-azabicyclo[2.2.1]heptan-4-yl)-4-(methyl-d3)benzenesulfonamide]	≤ 0.1 µM	≤ 0.1 µM	≤ 0.1 µM
[2H]C([2H])([2H])c1ccc(S(=O)(=O)NC23CCN(CC2)C3)cc1-c1cnc(N)c(-c2cnc(C)s2)n1 [Example 91, 3-(5-amino-6-(2-methylthiazol-5-yl)pyrazin-2-yl)-N-(1-azabicyclo[2.2.1]heptan-4-yl)-4-(methyl-d3)benzenesulfonamide]	≤ 0.1 µM	≤ 0.1 µM	≤ 0.1 µM
